The IC50 is the concentration at which inhibition is half-maximal. A lower IC50 goes with higher potency.

Some results are limits rather than exact numbers.

In experiment [1] the test system is Trypanosoma brucei brucei. The experiment can be described thus: Antitrypanosomal activity against Trypanosoma brucei brucei. In kind it is functional, organism-based.
In the next experiment the target is Trypanothione reductase (Trypanosoma cruzi, UniProt P28593). The experiment can be described thus: Inhibition of Trypanosoma cruzi TR.
Sequence of Trypanothione reductase (P28593 whole entry): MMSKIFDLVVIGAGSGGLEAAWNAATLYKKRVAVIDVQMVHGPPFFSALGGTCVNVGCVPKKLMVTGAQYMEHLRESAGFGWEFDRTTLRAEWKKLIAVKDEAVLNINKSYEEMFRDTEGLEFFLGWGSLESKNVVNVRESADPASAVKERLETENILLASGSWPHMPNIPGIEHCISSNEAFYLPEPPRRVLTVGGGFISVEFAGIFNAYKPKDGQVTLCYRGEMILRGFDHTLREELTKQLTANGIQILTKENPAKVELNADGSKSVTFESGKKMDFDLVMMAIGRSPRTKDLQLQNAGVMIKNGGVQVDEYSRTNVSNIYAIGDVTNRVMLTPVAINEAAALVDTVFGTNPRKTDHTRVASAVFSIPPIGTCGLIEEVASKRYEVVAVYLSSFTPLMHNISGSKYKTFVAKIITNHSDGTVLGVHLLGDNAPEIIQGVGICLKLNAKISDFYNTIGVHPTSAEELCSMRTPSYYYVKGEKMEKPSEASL
The target in experiment [2] is T1, Glutathione reductase, mitochondrial (Homo sapiens, UniProt P00390).
T1 sequence (P00390 whole entry): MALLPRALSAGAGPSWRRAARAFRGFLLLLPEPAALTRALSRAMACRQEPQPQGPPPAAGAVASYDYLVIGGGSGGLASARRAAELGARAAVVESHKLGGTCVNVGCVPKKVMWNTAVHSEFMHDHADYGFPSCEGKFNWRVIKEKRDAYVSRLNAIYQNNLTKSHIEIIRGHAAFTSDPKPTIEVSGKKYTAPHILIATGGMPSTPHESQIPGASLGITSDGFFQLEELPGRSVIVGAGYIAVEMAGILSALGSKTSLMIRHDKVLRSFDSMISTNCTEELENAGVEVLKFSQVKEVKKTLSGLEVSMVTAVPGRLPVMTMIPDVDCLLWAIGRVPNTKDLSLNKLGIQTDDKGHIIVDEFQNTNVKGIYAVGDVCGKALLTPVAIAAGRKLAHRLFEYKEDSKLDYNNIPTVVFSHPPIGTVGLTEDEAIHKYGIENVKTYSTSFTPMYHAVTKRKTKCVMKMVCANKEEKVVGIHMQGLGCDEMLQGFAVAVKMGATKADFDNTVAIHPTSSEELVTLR
The experiment can be described thus: Inhibition of human glutathione reductase.

As for `N=C(NCCCNCCCCNCCCNC(=N)NCCC(c1ccccc1)c1ccccc1)NCCC(c1ccccc1)c1ccccc1`, the IC50 in experiment [1] was 2400 nM; against Trypanothione reductase it was 2970 nM; in experiment [2] it was over 100000 nM.

`N=C(NCCCNCCCNCCCNC(=N)NC(=N)NCC(c1ccccc1)c1ccccc1)NC(=N)NCC(c1ccccc1)c1ccccc1`: the results for the IC50 (in experiment [1]; against Trypanothione reductase; in experiment [2]) were 180 nM, 4160 nM and over 100000 nM, respectively.

Regarding `N=C(NCCCNCCCNCCCNC(=N)NC(=N)NCCC(c1ccccc1)c1ccccc1)NC(=N)NCCC(c1ccccc1)c1ccccc1`, the IC50 is 1760 nM in experiment [1], 3680 nM on Trypanothione reductase and over 100000 nM in experiment [2].

As for `N=C(NCCCNCCCCCCCNCCCNC(=N)NC(=N)NCCC(c1ccccc1)c1ccccc1)NC(=N)NCCC(c1ccccc1)c1ccccc1`, the figures for the IC50 (in experiment [1]; at Trypanothione reductase; in experiment [2]) were 620 nM, 950 nM and over 100000 nM, respectively.

Consider `NC(=NCCCNCCCCCCCNCCCN=C(N)NCC(c1ccccc1)c1ccccc1)NCC(c1ccccc1)c1ccccc1`, for which the IC50 was 500 nM in experiment [1], 4720 nM on Trypanothione reductase and over 100000 nM in experiment [2].

Regarding `N=C(NCCCNCCCNCCCNC(=N)NCCC(c1ccccc1)c1ccccc1)NCCC(c1ccccc1)c1ccccc1`, the IC50 is 1950 nM in experiment [1], 5070 nM at Trypanothione reductase and over 100000 nM in experiment [2].

As to `NC(=NCCCNCCCNCCCN=C(N)NCC(c1ccccc1)c1ccccc1)NCC(c1ccccc1)c1ccccc1`, the IC50 in experiment [1] was 2050 nM; against Trypanothione reductase, 3600 nM; in experiment [2], over 100000 nM.

Turning to `NC(=NCCCNCCCCCCCNCCCN=C(N)NC1CCCCCC1)NC1CCCCCC1`, the IC50 in experiment [1] is 180 nM; at Trypanothione reductase, 17700 nM; in experiment [2] it was over 100000 nM.

As to `NC(=NCCCNCCCCCCCNCCCN=C(N)NCCC(c1ccccc1)c1ccccc1)NCCC(c1ccccc1)c1ccccc1`, the IC50 is 610 nM in experiment [1], 2240 nM on Trypanothione reductase and over 100000 nM in experiment [2].

With `N=C(NCCCNCCCCCCCNCCCNC(=N)NC(=N)NCC(c1ccccc1)c1ccccc1)NC(=N)NCC(c1ccccc1)c1ccccc1`, the results for the IC50 (in experiment [1]; against Trypanothione reductase; in experiment [2]) were 450 nM, 1660 nM and over 100000 nM, respectively.

For `N=C(NCCCNCCCCNCCCNC(=N)NCC(c1ccccc1)c1ccccc1)NCC(c1ccccc1)c1ccccc1`, the IC50 in experiment [1] was 3350 nM; on Trypanothione reductase, 4560 nM; in experiment [2] it was over 100000 nM.

Take `NC(=NCCCNCCCCCCCNCCCN=C(N)NCc1ccccc1)NCc1ccccc1`: the IC50 was 90 nM in experiment [1], 69500 nM against Trypanothione reductase and over 100000 nM in experiment [2].

Regarding `N=C(NCCCNCCCCNCCCNC(=N)NC(=N)NCCC(c1ccccc1)c1ccccc1)NC(=N)NCCC(c1ccccc1)c1ccccc1`, the IC50 was 190 nM in experiment [1], 2960 nM at Trypanothione reductase and over 100000 nM in experiment [2].

Take `N=C(NCCCNCCCCNCCCNC(=N)NC(=N)NCC(c1ccccc1)c1ccccc1)NC(=N)NCC(c1ccccc1)c1ccccc1`: the IC50 is 1050 nM in experiment [1], 2740 nM at Trypanothione reductase and over 100000 nM in experiment [2].

These data come from ChEMBL document CHEMBL1148496, “Novel alkylpolyaminoguanidines and alkylpolyaminobiguanides with potent antitrypanosomal activity” (Bioorg Med Chem Lett, 2006).
